Among the data in ChEMBL document CHEMBL1143471, “Synthesis of [1,2,4]triazolo[1,5-a]pyrazines as adenosine A2A receptor antagonists” (Bioorg Med Chem Lett, 2005) are Ki values, retold here.

The structures appear in SMILES notation.

One assay addresses Adenosine receptor A2a (Rattus norvegicus, UniProt P30543). The experiment in a line: biochemical.
A further assay concerns the target T1, Adenosine receptor A1 (Rattus norvegicus, UniProt P25099).
T1 sequence (P25099 whole entry): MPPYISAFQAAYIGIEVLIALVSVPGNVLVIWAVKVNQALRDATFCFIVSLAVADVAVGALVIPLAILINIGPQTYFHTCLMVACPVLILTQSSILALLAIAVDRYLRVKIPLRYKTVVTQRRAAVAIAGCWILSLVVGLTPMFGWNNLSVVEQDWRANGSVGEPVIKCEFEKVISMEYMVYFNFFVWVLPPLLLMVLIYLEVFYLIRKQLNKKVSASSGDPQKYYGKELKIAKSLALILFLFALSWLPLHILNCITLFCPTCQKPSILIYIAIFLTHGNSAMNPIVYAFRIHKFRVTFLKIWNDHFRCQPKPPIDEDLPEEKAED
In words: biochemical.

Sequence of Adenosine receptor A2a (P30543 whole entry): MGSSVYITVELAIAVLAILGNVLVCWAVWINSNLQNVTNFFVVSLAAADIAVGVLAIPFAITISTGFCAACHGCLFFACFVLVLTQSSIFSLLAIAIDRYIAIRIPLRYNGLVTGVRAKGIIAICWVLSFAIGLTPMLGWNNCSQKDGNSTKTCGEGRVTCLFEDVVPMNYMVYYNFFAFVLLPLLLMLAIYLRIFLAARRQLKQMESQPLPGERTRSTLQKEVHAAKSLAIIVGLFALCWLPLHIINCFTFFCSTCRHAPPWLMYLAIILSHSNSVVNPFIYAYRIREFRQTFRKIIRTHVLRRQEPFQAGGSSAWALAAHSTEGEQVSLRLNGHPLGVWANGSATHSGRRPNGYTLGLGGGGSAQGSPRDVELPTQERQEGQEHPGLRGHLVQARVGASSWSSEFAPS

On to `Nc1nc(-c2cccc3ccccc23)cn2nc(-c3ccco3)nc12`, for which the affinity at Adenosine receptor A2a, expressed as Ki, was 420 nM. Consider `Nc1nc(-c2cccc(C(=O)O)c2)cn2nc(-c3ccco3)nc12`, for which the inhibition constant Ki (usually the equilibrium dissociation constant of an inhibitor or competing ligand from its target) on Adenosine receptor A2a is above 1000 nM. The same measure, in the same setting: under `Nc1nc(-c2ccc([N+](=O)[O-])cc2)cn2nc(-c3ccco3)nc12` stands above 1000 nM. Consider `Nc1nc(-c2cccc(C(=O)NCCc3ccc(O)cc3)c2)cn2nc(-c3ccco3)nc12`, for which the inhibition constant (Ki) was above 250 nM on Adenosine receptor A1 and 180 nM at Adenosine receptor A2a. In the case of `Nc1nc(-c2cccnc2)cn2nc(-c3ccco3)nc12`, on Adenosine receptor A2a, the affinity corresponds to a Ki of 460 nM. `Nc1nc(-c2cccc(C(=O)N3CCN(Cc4ccccc4)CC3)c2)cn2nc(-c3ccco3)nc12`: the results for the Ki on Adenosine receptor A1 and at Adenosine receptor A2a were above 250 nM and 680 nM, respectively. Compound `Nc1nc(-c2cccc([N+](=O)[O-])c2)cn2nc(-c3ccco3)nc12` registered an inhibitory constant (Ki) at Adenosine receptor A2a of 460 nM. For `Nc1nc(-c2ccc(C(=O)NCCCn3ccnc3)cc2)cn2nc(-c3ccco3)nc12`, the inhibitory constant (Ki) on Adenosine receptor A1 was above 250 nM; at Adenosine receptor A2a, 330 nM. The like results for `Nc1nc(C(=O)N2CCN(Cc3ccccc3)CC2)cn2nc(-c3ccco3)nc12` were, in that order, above 250 nM and above 250 nM.

Regarding `Nc1nc(-c2cncnc2)cn2nc(-c3ccco3)nc12`, the inhibition constant Ki on Adenosine receptor A2a was determined as 360 nM. In the case of `Nc1nc(-c2cccc(C(=O)N3CCOCC3)c2)cn2nc(-c3ccco3)nc12`, the inhibition constant Ki was below 250 nM on Adenosine receptor A1 and 240 nM at Adenosine receptor A2a.

Take `Nc1nc(C(=O)N2CCN(c3ccncc3)CC2)cn2nc(-c3ccco3)nc12`: the Ki on Adenosine receptor A1 and on Adenosine receptor A2a was above 250 nM each time. The compound `CN(C)c1ccc(-c2cn3nc(-c4ccco4)nc3c(N)n2)cc1` came in with a Ki on Adenosine receptor A2a above 1000 nM. The same measure, in the same setting: under `CC(=O)c1cccc(-c2cn3nc(-c4ccco4)nc3c(N)n2)c1` stands 75 nM.

Take `Nc1nc(-c2cccc(C(=O)N3CCN(c4ccncc4)CC3)c2)cn2nc(-c3ccco3)nc12`: the Ki at Adenosine receptor A1 came out at 3 nM; on Adenosine receptor A2a, 730 nM. For `Nc1nc(C(=O)N2CCOCC2)cn2nc(-c3ccco3)nc12` the same measures were above 250 nM and above 250 nM.

For the compound `CCOC(=O)c1ccc(-c2cn3nc(-c4ccco4)nc3c(N)n2)cc1`, the inhibitory constant (Ki) at Adenosine receptor A2a was above 1000 nM.

In the case of `CCN(CC)C(=O)c1cccc(-c2cn3nc(-c4ccco4)nc3c(N)n2)c1`, the inhibition constant (Ki) was found to be 41 nM on Adenosine receptor A1 and 1 nM on Adenosine receptor A2a. Regarding `Nc1nc(-c2ccc(CO)cc2)cn2nc(-c3ccco3)nc12`, the Ki at Adenosine receptor A2a is above 1000 nM.

Compound `Nc1cccc(-c2cn3nc(-c4ccco4)nc3c(N)n2)c1` yielded an inhibition constant Ki at Adenosine receptor A2a of 630 nM. `CN(C)c1cccc(-c2cn3nc(-c4ccco4)nc3c(N)n2)c1` had an inhibition constant (Ki) at Adenosine receptor A2a of 140 nM. On to `Nc1ccc(-c2cn3nc(-c4ccco4)nc3c(N)n2)cc1`, for which the Ki at Adenosine receptor A2a is above 1000 nM. On to `Nc1nc(-c2ccc(C(=O)NCCc3ccc(O)cc3)cc2)cn2nc(-c3ccco3)nc12`, for which the figures for the Ki on Adenosine receptor A1 and on Adenosine receptor A2a were 36 nM and 830 nM, respectively.

With `CN(Cc1ccccc1)C(=O)c1cn2nc(-c3ccco3)nc2c(N)n1`, the Ki at Adenosine receptor A1 came to 160 nM; on Adenosine receptor A2a, 27 nM. `Nc1nc(-c2ccc(C(F)(F)F)cc2)cn2nc(-c3ccco3)nc12`: the Ki on Adenosine receptor A2a was above 1000 nM. `Nc1nc(C(=O)NCc2ccccc2)cn2nc(-c3ccco3)nc12`: the Ki is 14 nM at Adenosine receptor A1 and 2 nM at Adenosine receptor A2a. Compound `CCOC(=O)c1cccc(-c2cn3nc(-c4ccco4)nc3c(N)n2)c1` returned a Ki at Adenosine receptor A2a of 370 nM. In turn, `CC(C)c1cccc(-c2cn3nc(-c4ccco4)nc3c(N)n2)c1` showed a Ki on Adenosine receptor A2a of 680 nM. On Adenosine receptor A2a, `Nc1nc(-c2cccc(C(F)(F)F)c2)cn2nc(-c3ccco3)nc12` showed a Ki of 220 nM. Regarding `Nc1nc(C(=O)NCCCc2ccccc2)cn2nc(-c3ccco3)nc12`, the values for the Ki at Adenosine receptor A1 and on Adenosine receptor A2a were 240 nM and 28 nM, respectively. Compound `Nc1nc(-c2cccc3cccnc23)cn2nc(-c3ccco3)nc12` yielded an inhibitory constant (Ki) on Adenosine receptor A2a of 250 nM. Same read-out and setting: next, `N#Cc1ccc(-c2cn3nc(-c4ccco4)nc3c(N)n2)cc1`: above 1000 nM; `NC(=O)c1cccc(-c2cn3nc(-c4ccco4)nc3c(N)n2)c1`: 110 nM. On the same count and under the same terms, under `N#Cc1cccc(-c2cn3nc(-c4ccco4)nc3c(N)n2)c1` stands 160 nM; under `CC(=O)Nc1cccc(-c2cn3nc(-c4ccco4)nc3c(N)n2)c1`, 160 nM; under `Nc1nc(-c2ccco2)cn2nc(-c3ccco3)nc12`, 400 nM. Compound `Nc1nc(-c2cccc(CO)c2)cn2nc(-c3ccco3)nc12` registered a Ki on Adenosine receptor A2a of 470 nM. On the same count and under the same terms, next, `COc1cccc(-c2cn3nc(-c4ccco4)nc3c(N)n2)c1`: 270 nM. Consider `CC(C)NC(=O)c1cccc(-c2cn3nc(-c4ccco4)nc3c(N)n2)c1`, for which the figures for the Ki on Adenosine receptor A1 and on Adenosine receptor A2a were 290 nM and 140 nM, respectively. In turn, `CS(=O)(=O)c1cccc(-c2cn3nc(-c4ccco4)nc3c(N)n2)c1` had a Ki on Adenosine receptor A2a of 110 nM. On to `Nc1nc(C(=O)NCCc2ccc(O)cc2)cn2nc(-c3ccco3)nc12`, for which the inhibitory constant (Ki) came out at 320 nM at Adenosine receptor A1 and 1 nM at Adenosine receptor A2a.

For `Nc1nc(-c2ccc(C(=O)N3CCOCC3)cc2)cn2nc(-c3ccco3)nc12`, the values for the inhibitory constant (Ki) at Adenosine receptor A1 and on Adenosine receptor A2a were 1800 nM and 19 nM, respectively. As for `CN(C)C(=O)c1cccc(-c2cn3nc(-c4ccco4)nc3c(N)n2)c1`, the values for the Ki on Adenosine receptor A1 and at Adenosine receptor A2a were 120 nM and 70 nM, respectively. The like results for `CCCCNC(=O)c1cn2nc(-c3ccco3)nc2c(N)n1` were, in that order, 120 nM and 1 nM.
